“And” between values parts separate entries of the source, which are not always exact repeats. Equal values may be shown once. “Also recorded” adds a separate entry of the source.
Experiments:
hMAO-B [1] = target: T1, hMAO-B (Homo sapiens, UniProt P27338); test: Kinetics of hMAO-B inhibition (Lineweaver-Burk and secondary plots); type: biochemical; conditions: for Inhibition type hMAO-B: Lineweaver-Burk plots; for Ki: secondary plots of Lineweaver-Burk slopes
T1 construct: purchased Sigma-Aldrich
T1 sequence (P27338 1-520): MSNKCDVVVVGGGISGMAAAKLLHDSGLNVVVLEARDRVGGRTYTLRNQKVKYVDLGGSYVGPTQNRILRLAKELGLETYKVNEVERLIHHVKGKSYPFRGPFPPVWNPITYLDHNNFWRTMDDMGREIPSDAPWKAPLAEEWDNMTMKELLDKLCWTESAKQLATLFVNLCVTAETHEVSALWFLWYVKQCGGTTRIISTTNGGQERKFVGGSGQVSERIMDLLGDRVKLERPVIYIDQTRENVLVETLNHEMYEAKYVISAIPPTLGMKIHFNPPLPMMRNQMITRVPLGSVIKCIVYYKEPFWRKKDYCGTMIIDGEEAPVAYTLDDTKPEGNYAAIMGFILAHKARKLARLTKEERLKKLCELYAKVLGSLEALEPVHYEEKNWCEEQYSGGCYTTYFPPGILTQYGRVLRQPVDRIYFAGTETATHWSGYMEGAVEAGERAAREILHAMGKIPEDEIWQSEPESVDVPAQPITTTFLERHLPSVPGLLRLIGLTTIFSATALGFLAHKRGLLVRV

hMAO-B [2] = target: T1, hMAO-B; test: biochemical; type: biochemical; conditions: for SI: hMAO-B selectivity: IC50 of hMAO-A divided by IC50 of hMAO-B; for remaining activity at 10 µM: read-out: Residual Activity at 10 µM (%) hMAO-B
Method: (§1) All other chemicals were of reagent grade.
(§2) hMAO-A and -B activities were determined using a continuous spectrophotometric method, as described previously. […] AChE and BChE activities were assayed as described by Ellman et al., with slight modification. Reactions were performed using AChE and BChE in the 0.5 mL reaction mixtures including 0.5 mM substrate (ATCI and BTCI, respectively) and color reagent (DTNB). […] Reaction rates are expressed as changes in absorbance per min.. Inhibitory activities of AChE and BChE were measured after preincubating enzyme with inhibitors for 15 min before adding DTNB and each substrate. […]

BChE = target: T2, BChE (Equus caballus, UniProt P81908); test: BChE inhibition (Ellman method); type: biochemical, equine; conditions: read-out: Residual Activity at 10 µM (%) BChE
T2 construct: BChE from equine serum; purchased Sigma-Aldrich; host or cells: equine serum
T2 sequence (P81908 whole entry): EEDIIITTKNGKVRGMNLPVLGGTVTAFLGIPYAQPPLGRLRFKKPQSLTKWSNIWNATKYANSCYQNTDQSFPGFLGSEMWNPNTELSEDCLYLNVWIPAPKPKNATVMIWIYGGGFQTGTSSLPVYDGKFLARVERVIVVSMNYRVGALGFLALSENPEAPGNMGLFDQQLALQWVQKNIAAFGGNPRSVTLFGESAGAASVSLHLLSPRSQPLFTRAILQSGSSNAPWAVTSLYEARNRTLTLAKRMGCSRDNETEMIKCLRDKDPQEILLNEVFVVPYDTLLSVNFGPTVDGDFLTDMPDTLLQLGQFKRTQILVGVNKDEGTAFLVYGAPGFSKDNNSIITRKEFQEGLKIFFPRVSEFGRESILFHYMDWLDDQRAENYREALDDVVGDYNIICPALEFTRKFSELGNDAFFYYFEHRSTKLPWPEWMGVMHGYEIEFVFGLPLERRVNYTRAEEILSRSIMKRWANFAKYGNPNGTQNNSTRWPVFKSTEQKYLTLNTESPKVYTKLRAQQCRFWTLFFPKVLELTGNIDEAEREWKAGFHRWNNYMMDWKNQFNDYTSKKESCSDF
Method: as §1, §2

hMAO-B [3] = target: T1, hMAO-B; test: Reversibility of hMAO-B inhibition by dialysis; type: biochemical; conditions: for Reversibility of hMAO-B inhibition: dialysis; for Relative activity dialyzed (AD), hMAO-B: inhibitor at ~2 times IC50, after dialysis; for Relative activity undialyzed (AU), hMAO-B: inhibitor at ~2 times IC50, before dialysis
Method: (§3) After preincubating compounds or reference inhibitors with hMAO-A and hMAO-B, residual activities for undialyzed and dialyzed samples were measured. Relative values for undialyzed (AU) and dialyzed (AD) activities were then calculated and compared with non-inhibitor treated controls. Reversibilities were determined by comparing the AU and AD values of inhibitors with those of references.

BACE1 = target: T3, BACE1 (Homo sapiens, UniProt P56817); test: BACE1 inhibition (fluorescent activity detection kit); type: biochemical; conditions: read-out: Residual Activity at 10 µM (%) BACE1
T3 construct: purchased Sigma-Aldrich
T3 sequence (P56817 46-501): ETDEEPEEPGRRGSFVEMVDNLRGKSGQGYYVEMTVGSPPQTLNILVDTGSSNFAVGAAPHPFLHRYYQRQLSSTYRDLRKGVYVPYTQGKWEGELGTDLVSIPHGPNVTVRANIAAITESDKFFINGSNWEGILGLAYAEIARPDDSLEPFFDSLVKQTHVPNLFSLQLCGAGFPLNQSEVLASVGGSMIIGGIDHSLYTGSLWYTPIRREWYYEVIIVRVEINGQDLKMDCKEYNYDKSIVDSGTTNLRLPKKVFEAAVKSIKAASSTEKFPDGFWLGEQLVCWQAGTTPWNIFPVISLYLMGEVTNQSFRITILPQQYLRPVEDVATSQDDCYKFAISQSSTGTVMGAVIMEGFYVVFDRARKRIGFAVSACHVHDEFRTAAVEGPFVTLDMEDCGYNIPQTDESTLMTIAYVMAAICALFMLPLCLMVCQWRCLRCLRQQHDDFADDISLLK

HL-60 cells = test: Cytotoxicity, CCK-8 cell viability, HL-60; type: cell-based, human; conditions: cancer cell line, up to 50 µM, 24 h
Text: (§4) Dimethyl sulfoxide (DMSO) and 2-mercaptoethanol (2-ME) were obtained from Sigma Aldrich. Cell counting kit-8 (CCK-8) was obtained from Dojindo Laboratories (Kumamoto, Japan). Madin-Darby canine kidney (MDCK; KCLB 10034) cells, human acute promyelocytic leukemia (HL-60; KCLB 10240) cells, and human neuroblastoma cells (SH-SY5Y; KCLB 22266) were purchased from the Korean Cell Line Bank (KCLB, Seoul, Republic of Korea).
(§5) Passages were used between 10 and 30. Following trypsinization, MDCK (1 × 10^4), HL-60 (5 × 10^4), and SH-SY5Y (5 × 10^4) cells were seeded in 96-well plates and treated with 1, 3, 10, 30 and 50 µM of each inhibitor. The plates were then incubated for 24 h at 37 °C with 5% CO2, and cell viability was determined by the CCK-8 and by measuring the optical density at 450 nm using a microplate reader (Versa Max, Molecular Devices, Sunnyvale, CA, USA). The cell viability was expressed as % by comparing the absorbance of the sample to that of the control. Statistical differences between groups were analyzed by ANOVA using IBM SPSS statistics 27 and probability values (p-values) less than 0.05 were marked as significant values.

hMAO-A [4] = target: T4, hMAO-A (Homo sapiens, UniProt P21397); test: biochemical; conditions: for remaining activity at 10 µM: read-out: Residual Activity at 10 µM (%) hMAO-A
T4 construct: purchased Sigma-Aldrich
T4 sequence (P21397 1-527): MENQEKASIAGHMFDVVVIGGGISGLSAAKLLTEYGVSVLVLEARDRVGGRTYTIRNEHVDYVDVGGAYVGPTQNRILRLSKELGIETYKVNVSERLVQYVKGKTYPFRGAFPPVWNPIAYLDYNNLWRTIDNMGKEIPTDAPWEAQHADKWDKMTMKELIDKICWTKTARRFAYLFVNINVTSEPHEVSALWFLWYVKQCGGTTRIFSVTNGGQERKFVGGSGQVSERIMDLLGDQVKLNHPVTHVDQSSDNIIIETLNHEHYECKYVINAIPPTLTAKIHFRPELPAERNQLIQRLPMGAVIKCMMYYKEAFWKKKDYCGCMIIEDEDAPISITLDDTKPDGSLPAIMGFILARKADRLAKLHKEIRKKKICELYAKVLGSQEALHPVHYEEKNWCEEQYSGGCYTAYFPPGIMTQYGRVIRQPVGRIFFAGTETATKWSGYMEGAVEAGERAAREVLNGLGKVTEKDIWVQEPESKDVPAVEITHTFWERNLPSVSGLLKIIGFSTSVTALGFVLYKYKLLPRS
Method: as §1
hMAO-A and -B activities were determined using a continuous spectrophotometric method, as described previously. […] AChE and BChE activities were assayed as described by Ellman et al., with slight modification. Reactions were performed using AChE and BChE in the 0.5 mL reaction mixtures including 0.5 mM substrate (ATCI and BTCI, respectively) and color reagent (DTNB). […] Reaction rates are expressed as changes in absorbance per min.. Inhibitory activities of AChE and BChE were measured after preincubating enzyme with inhibitors for 15 min before adding DTNB and each substrate.
Inhibitory types and Ki values were determined using Lineweaver-Burk plots and secondary plots of their slopes, respectively.

MDCK cells = test: Cytotoxicity, CCK-8 cell viability, MDCK; type: cell-based, canine; conditions: normal cell line, up to 50 µM, 24 h
Text: as §4, §5

AChE = target: T5, AChE (Electrophorus electricus, UniProt O42275); test: AChE inhibition (Ellman method); type: biochemical; conditions: read-out: Residual Activity at 10 µM (%) AChE
T5 construct: purchased Sigma-Aldrich
T5 sequence (O42275 24-633): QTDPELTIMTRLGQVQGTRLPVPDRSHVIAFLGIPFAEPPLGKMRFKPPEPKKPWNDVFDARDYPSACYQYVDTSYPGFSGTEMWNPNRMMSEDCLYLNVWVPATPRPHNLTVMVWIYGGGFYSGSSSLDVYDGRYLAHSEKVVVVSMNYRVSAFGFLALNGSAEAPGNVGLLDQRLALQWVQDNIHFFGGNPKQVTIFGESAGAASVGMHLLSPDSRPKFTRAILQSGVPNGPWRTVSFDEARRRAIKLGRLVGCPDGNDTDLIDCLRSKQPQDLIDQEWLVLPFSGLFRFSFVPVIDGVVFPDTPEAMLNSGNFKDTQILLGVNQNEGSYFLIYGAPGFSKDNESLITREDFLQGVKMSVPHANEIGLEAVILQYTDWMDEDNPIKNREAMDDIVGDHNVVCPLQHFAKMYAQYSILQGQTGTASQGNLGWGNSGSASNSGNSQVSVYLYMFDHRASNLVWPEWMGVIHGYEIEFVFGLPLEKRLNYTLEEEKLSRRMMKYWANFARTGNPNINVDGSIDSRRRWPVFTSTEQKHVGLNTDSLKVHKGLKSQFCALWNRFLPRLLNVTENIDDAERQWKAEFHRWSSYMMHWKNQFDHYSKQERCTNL
Method: as §1, §2

SH-SY5Y cells = test: Cytotoxicity, CCK-8 cell viability, SH-SY5Y; type: cell-based, human; conditions: neuroblastoma, 24 h
Text: as §4, §5

[5] = Cytotoxicity, CCK-8 cell viability, SH-SY5Y; type: cell-based, human; conditions: human, 30 µM
Text: as §4, §5

hMAO-A [6] = target: T4, hMAO-A; test: Kinetics of hMAO-A inhibition (Lineweaver-Burk and secondary plots); type: biochemical
Method: The kinetics of MAO-A inhibition by 13 was also investigated as above, except at 0.0075–0.12 mM of substrate concentrations. Inhibitory types and Ki values were determined using Lineweaver-Burk plots and secondary plots of their slopes, respectively.

hMAO-A [7] = target: T4, hMAO-A; test: Reversibility of hMAO-A inhibition by dialysis; type: biochemical
Method: as §3

Structure (SMILES): COc1ccc2c(c1)OC1c3ccc(O)cc3OCC21 (stereo not drawn) [Compound 8, 3-hydroxy-9-methoxypterocarpan]
- Inhibition type hMAO-B (hMAO-B [1]): competitive inhibitor
- Ki (hMAO-B [1]): 0.197 ± 0.004 µM
- IC50 (hMAO-B [2]): 0.45 ± 0.032 µM
- times higher hMAO-B inhibitory activity than 13 (hMAO-B [2]; 3-OH of 8 versus 3-OCH3 of 13): 1.6 times
- SI (hMAO-B [2]): 44.2
- remaining activity at 10 µM (hMAO-B [2]): 4.17 ± 0.84%
- times higher hMAO-B inhibition than maackiain (hMAO-B [2]; versus maackiain IC50 of ref 36): 1.5 times
- remaining activity at 10 µM (BChE): 98.4 ± 1%
- Reversibility of hMAO-B inhibition (hMAO-B [3]): reversible inhibitor
- Relative activity dialyzed (AD), hMAO-B (hMAO-B [3]): 72.7%
- Relative activity undialyzed (AU), hMAO-B (hMAO-B [3]): 29.8%
- remaining activity at 10 µM (BACE1): 111.4 ± 0.52%
- Effect on viability of HL-60 cells (HL-60 cells): non-toxicity; also recorded: no effects on the viabilities
- IC50 (hMAO-A [4]): 19.9 ± 0.85 µM
- remaining activity at 10 µM (hMAO-A [4]): 64.18 ± 0.53%
- Effect on viability of MDCK cells (MDCK cells): non-toxicity; also recorded: no effects on the viabilities
- remaining activity at 10 µM (AChE): 80.6 ± 2.62%
- Toxicity to SH-SY5Y cells (SH-SY5Y cells): moderate toxicity
- viability at 24 h, 30 µM ([5]; SH-SY5Y cells): 74%

Structure (SMILES): COc1ccc2c(c1)O[C@H]1c3ccc(OC)cc3OC[C@@H]21 [Compound 13, 3,9-dimethoxypterocarpan]
- Inhibition type hMAO-B (hMAO-B [1]): competitive inhibitor
- Ki (hMAO-B [1]): 0.21 µM and 0.212 µM
- Inhibition type hMAO-A (hMAO-A [6]; Lineweaver-Burk plots): competitive inhibitor
- Ki (hMAO-A [6]; secondary plots of Lineweaver-Burk slopes): 0.617 ± 0.023 µM
- Reversibility of hMAO-A inhibition (hMAO-A [7]; dialysis): reversible inhibitor
- Relative activity dialyzed (AD), hMAO-A (hMAO-A [7]; inhibitor at ~2 times IC50, after dialysis): 75.8%
- Relative activity undialyzed (AU), hMAO-A (hMAO-A [7]; inhibitor at ~2 times IC50, before dialysis): 25.4%
- IC50 (hMAO-B [2]): 0.72 ± 0.028 µM
- times higher hMAO-B inhibitory activity than 12 (hMAO-B [2]; 9-OCH3 of 13 versus 8,9-methylenedioxy of 12): 4.7 times
- SI (hMAO-B [2]): 2.07
- remaining activity at 10 µM (hMAO-B [2]): 4.05 ± 1.91%
- remaining activity at 10 µM (BChE): 88.5 ± 1.96%
- Reversibility of hMAO-B inhibition (hMAO-B [3]): reversible inhibitor
- Relative activity dialyzed (AD), hMAO-B (hMAO-B [3]): 73.5%
- Relative activity undialyzed (AU), hMAO-B (hMAO-B [3]): 32.0%
- remaining activity at 10 µM (BACE1): 101.48 ± 0.01%
- Effect on viability of HL-60 cells (HL-60 cells): non-toxicity; also recorded: no effects on the viabilities
- IC50 (hMAO-A [4]): 1.49 ± 0.021 µM
- remaining activity at 10 µM (hMAO-A [4]): 11.6 ± 2.6%
- Effect on viability of MDCK cells (MDCK cells): non-toxicity; also recorded: no effects on the viabilities
- remaining activity at 10 µM (AChE): 81 ± 2.44%
- Toxicity to SH-SY5Y cells (SH-SY5Y cells): moderate toxicity
- viability at 24 h, 30 µM ([5]; SH-SY5Y neuroblastoma cells): 71.1%
